Patent US20170210723A1, “MOLECULES HAVING PESTICIDAL UTILITY, AND INTERMEDIATES, COMPOSITIONS, AND PROCESSES, RELATED THERETO” (priority 2016, published 2017)

Tests used:
Type in all cases: in vivo
[1] = system: Yellow Fever Mosquito (Aedes aegypti); assay: Bioassays on Yellow Fever Mosquito larvae, 96-well plate; conditions: from 4000 ppm DMSO master plate, about 1 day-old larvae, 3 days
Method in brief: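 Aedes aegypti larvae about 1 day old, in water with liver powder, exposed in 96-well plates to compounds from a 4000 ppm DMSO master solution diluted in 90:10 water:acetone. Plates covered and held at room temperature for 3 days, then each well scored for mortality; 6 replicate plates.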

[2] = system: Cabbage Looper (Trichoplusia ni); assay: Bioassays on CL, 128-well diet tray assay; conditions: Trichoplusia ni, 168 h; 50 μg/cm^2 on artificial diet, second instar larvae, five to seven days; read-out: CL % Control (or Mortality) rating
Method in brief: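 Second-instar larvae (1–5 per well) were fed diet surface-treated with 50 μg/cm^2 compound, eight wells each. After five to seven days at 25° C. under a 14:10 photoperiod, mortality was scored per well and the eight wells averaged.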

[3] = system: Beet Armyworm (Spodoptera exigua); assay: Bioassays on BAW, 128-well diet tray assay; conditions: Spodoptera exigua, 168 h; 50 μg/cm^2 on artificial diet, second instar larvae, five to seven days; read-out: BAW % Control (or Mortality) rating

SMILES	YFM % Control (or Mortality) rating [1]	mortality at 50 µg/cm2 [2]	mortality at 50 µg/cm2 [3]
Cc1cc(/C=C/C(c2cc(Cl)cc(Cl)c2)C(F)(F)F)ccc1C(=O)N[C@H](C)CSCC(F)(F)F (stereo partly drawn) [F89, 4-((E)-3-(3,5-Dichlorophenyl)-4,4,4-trifluorobut-1-en-1-yl)-2-methyl-N—((R)-1-((2,2,2-trifluoroethyl)thio)propan-2-yl)benzamide]	A (80-100)	50 to 100%	50 to 100%
C[C@H](C[S+]([O-])CC(F)(F)F)NC(=O)c1ccc(/C=C/C(c2cc(Cl)cc(Cl)c2)C(F)(F)F)cc1C(F)(F)F (stereo partly drawn) [F90, 4-((E)-3-(3,5-Dichlorophenyl)-4,4,4-trifluorobut-1-en-1-yl)-N-((2R)-1-((2,2,2-trifluoroethyl)sulfinyl)propan-2-yl)-2-(trifluoromethyl)benzamide]	A (80-100)	50 to 100%	50 to 100%
Cc1cc(/C=C/C(c2cc(Cl)cc(Cl)c2)C(F)(F)F)ccc1C(=O)N[C@H](C)C[S+]([O-])CC(F)(F)F (stereo partly drawn) [F91, 4-((E)-3-(3,5-Dichlorophenyl)-4,4,4-trifluorobut-1-en-1-yl)-2-methyl-N-((2R)-1-((2,2,2-trifluoroethyl)sulfinyl)propan-2-yl)benzamide]	A (80-100)	50 to 100%	50 to 100%
Cc1cc(/C=C/C(c2cc(Cl)cc(Cl)c2)C(F)(F)F)ccc1C(=O)N[C@H](C)CS(=O)(=O)CC(F)(F)F (stereo partly drawn) [F92, 4-((E)-3-(3,5-Dichlorophenyl)-4,4,4-trifluorobut-1-en-1-yl)-2-methyl-N—((R)-1-((2,2,2-trifluoroethyl)sulfonyl)propan-2-yl)benzamide]	A (80-100)	50 to 100%	50 to 100%
C[C@H](CS(=O)(=O)CC(F)(F)F)NC(=O)c1ccc(/C=C/C(c2cc(Cl)cc(Cl)c2)C(F)(F)F)cc1C(F)(F)F (stereo partly drawn) [F93, 4-((E)-3-(3,5-Dichlorophenyl)-4,4,4-trifluorobut-1-en-1-yl)-N—((R)-1-((2,2,2-trifluoroethyl)sulfonyl)propan-2-yl)-2-(trifluoromethyl)benzamide]	A (80-100)	50 to 100%	50 to 100%
C[C@H](C[S+]([O-])CC(F)(F)F)NC(=O)c1ccc(/C=C/C(c2cc(Cl)cc(Cl)c2)C(F)(F)F)cc1Cl (stereo partly drawn) [F94, 2-Chloro-4-((E)-3-(3,5-dichlorophenyl)-4,4,4-trifluorobut-1-en-1-yl)-N-((2R)-1-((2,2,2-trifluoroethyl)sulfinyl)propan-2-yl)benzamide]	A (80-100)	50 to 100%	50 to 100%
C[C@H](CS(=O)(=O)CC(F)(F)F)NC(=O)c1ccc(/C=C/C(c2cc(Cl)cc(Cl)c2)C(F)(F)F)cc1Cl (stereo partly drawn) [F95, 2-Chloro-4-((E)-3-(3,5-dichlorophenyl)-4,4,4-trifluorobut-1-en-1-yl)-N—((R)-1-((2,2,2-trifluoroethyl)sulfonyl)propan-2-yl)benzamide]	A (80-100)	50 to 100%	50 to 100%
C[C@H](CCSCC(F)(F)F)NC(=O)c1ccc(/C=C/C(c2cc(Cl)c(Cl)c(Cl)c2)C(F)(F)F)cc1C(F)(F)F (stereo partly drawn) [F96, 4-((E)-4,4,4-Trifluoro-3-(3,4,5-trichlorophenyl)but-1-en-1-yl)-N—((R)-4-((2,2,2-trifluoroethyl)thio)butan-2-yl)-2-(trifluoromethyl)benzamide]	A (80-100)	50 to 100%	50 to 100%
Cc1cc(/C=C/C(c2cc(Cl)c(Cl)c(Cl)c2)C(F)(F)F)cc(F)c1C(=O)N[C@H](C)CSCC(F)(F)F (stereo partly drawn) [F97, 2-Fluoro-6-methyl-4-((E)-4,4,4-trifluoro-3-(3,4,5-trichlorophenyl)but-1-en-1-yl)-N—((R)-1-((2,2,2-trifluoroethyl)thio)propan-2-yl)benzamide]	A (80-100)	50 to 100%	50 to 100%
Cc1cc(/C=C/C(c2cc(Cl)c(Cl)c(Cl)c2)C(F)(F)F)cc(F)c1C(=O)N[C@H](C)CS(=O)(=O)CC(F)(F)F (stereo partly drawn) [F98, 2-Fluoro-6-methyl-4-((E)-4,4,4-trifluoro-3-(3,4,5-trichlorophenyl)but-1-en-1-yl)-N—((R)-1-((2,2,2-trifluoroethyl)sulfonyl)propan-2-yl)benzamide]	A (80-100)	50 to 100%	50 to 100%
Cc1cc(/C=C/C(c2cc(Cl)c(Cl)c(Cl)c2)C(F)(F)F)cc(F)c1C(=O)N[C@H](C)C[S+]([O-])CC(F)(F)F (stereo partly drawn) [F99, 2-Fluoro-6-methyl-4-((E)-4,4,4-trifluoro-3-(3,4,5-trichlorophenyl)but-1-en-1-yl)-N-((2R)-1-((2,2,2-trifluoroethyl)sulfinyl)propan-2-yl)benzamide]	A (80-100)	50 to 100%	50 to 100%
C[C@H](CSCC(F)(F)F)NC(=O)c1ccc(/C=C/C(c2cc(Cl)c(Cl)c(C=O)c2)C(F)(F)F)cc1C(F)(F)F (stereo partly drawn) [F100, 4-((E)-3-(3,4-Dichloro-5-formylphenyl)-4,4,4-trifluorobut-1-en-1-yl)-N—((R)-1-((2,2,2-trifluoroethyl)thio)propan-2-yl)-2-(trifluoromethyl)benzamide]	B (More than 0-Less than 80)	50 to 100%	50 to 100%
C=CCSC[C@@H](C)NC(=O)c1ccc(/C=C/C(c2cc(Cl)c(Cl)c(Cl)c2)C(F)(F)F)cc1C(F)(F)F (stereo partly drawn) [F101, N—((R)-1-(Allylthio)propan-2-yl)-4-((E)-4,4,4-trifluoro-3-(3,4,5-trichlorophenyl)but-1-en-1-yl)-2-(trifluoromethyl)benzamide]	A (80-100)	50 to 100%	50 to 100%
C=CCS(=O)(=O)C[C@@H](C)NC(=O)c1ccc(/C=C/C(c2cc(Cl)c(Cl)c(Cl)c2)C(F)(F)F)cc1C(F)(F)F (stereo partly drawn) [F102, N—((R)-1-(Allylsulfonyl)propan-2-yl)-4-((E)-4,4,4-trifluoro-3-(3,4,5-trichlorophenyl)but-1-en-1-yl)-2-(trifluoromethyl)benzamide]	A (80-100)	50 to 100%	50 to 100%
C=CC[S+]([O-])C[C@@H](C)NC(=O)c1ccc(/C=C/C(c2cc(Cl)c(Cl)c(Cl)c2)C(F)(F)F)cc1C(F)(F)F (stereo partly drawn) [F103, N-((2R)-1-(Allylsulfinyl)propan-2-yl)-4-((E)-4,4,4-trifluoro-3-(3,4,5-trichlorophenyl)but-1-en-1-yl)-2-(trifluoromethyl)benzamide]	A (80-100)	50 to 100%	50 to 100%
C[C@H](CSCC(F)(F)F)NC(=O)c1ccc(/C=C/C(c2cc(Cl)cc(Cl)c2)C(F)(F)F)cc1Cl (stereo partly drawn) [F104, 2-Chloro-4-((E)-3-(3,5-dichlorophenyl)-4,4,4-trifluorobut-1-en-1-yl)-N—((R)-1-((2,2,2-trifluoroethyl)thio)propan-2-yl)benzamide]	A (80-100)	50 to 100%	50 to 100%
C[C@H](CC[S+]([O-])CC(F)(F)F)NC(=O)c1ccc(/C=C/C(c2cc(Cl)c(Cl)c(Cl)c2)C(F)(F)F)cc1C(F)(F)F (stereo partly drawn) [F105, 4-((E)-4,4,4-Trifluoro-3-(3,4,5-trichlorophenyl)but-1-en-1-yl)-N-((2R)-4-((2,2,2-trifluoroethyl)sulfinyl)butan-2-yl)-2-(trifluoromethyl)benzamide]	A (80-100)	50 to 100%	50 to 100%
C[C@H](CCS(=O)(=O)CC(F)(F)F)NC(=O)c1ccc(/C=C/C(c2cc(Cl)c(Cl)c(Cl)c2)C(F)(F)F)cc1C(F)(F)F (stereo partly drawn) [F106, 4-((E)-4,4,4-Trifluoro-3-(3,4,5-trichlorophenyl)but-1-en-1-yl)-N—((R)-4-((2,2,2-trifluoroethyl)sulfonyl)butan-2-yl)-2-(trifluoromethyl)benzamide]	A (80-100)	50 to 100%	50 to 100%
C[C@H](CSCC(F)(F)F)NC(=O)c1ccc(/C=C/C(c2cc(Cl)c(C#N)c(Cl)c2)C(F)(F)F)cc1C(F)(F)F (stereo partly drawn) [F109, 4-((E)-3-(3,5-Dichloro-4-cyanophenyl)-4,4,4-trifluorobut-1-en-1-yl)-N—((R)-1-((2,2,2-trifluoroethyl)thio)propan-2-yl)-2-(trifluoromethyl)benzamide]	A (80-100)	50 to 100%	50 to 100%
O=C(NC1(CSCC(F)(F)F)CC1)c1ccc(/C=C/C(c2cc(Cl)c(Cl)c(Cl)c2)C(F)(F)F)cc1C(F)(F)F (stereo not drawn) [F110, (E)-4-(4,4,4-Trifluoro-3-(3,4,5-trichlorophenyl)but-1-en-1-yl)-N-(1-(((2,2,2-trifluoroethyl)thio)methyl)cyclopropyl)-2-(trifluoromethyl)benzamide]	A (80-100)	50 to 100%	50 to 100%
O=C(NC1(CS(=O)(=O)CC(F)(F)F)CC1)c1ccc(/C=C/C(c2cc(Cl)c(Cl)c(Cl)c2)C(F)(F)F)cc1C(F)(F)F (stereo not drawn) [F112, (E)-4-(4,4,4-Trifluoro-3-(3,4,5-trichlorophenyl)but-1-en-1-yl)-N-(1-(((2,2,2-trifluoroethyl)sulfonyl)methyl)cyclopropyl)-2-(trifluoromethyl)benzamide]	A (80-100)	50 to 100%	50 to 100%
